In PMC9866339, “In Silico and In Vitro Study of Janus Kinases Inhibitors from Naphthoquinones” (Molecules, 2023):
Read-outs that look alike come from different tables or passages of the source.

How the values were obtained:
HEL cells = assay: Presto Blue cytotoxicity assay on HEL cells; type: cell-based, human; conditions: for IC50: Homo sapiens, HEL, 72 h, read-out: IC50 against HEL cell viability; for Cytotoxicity screening on HEL cells: 10 μM, result in words
TF1 cells [1] = assay: Presto Blue cytotoxicity assay on TF1 cells; type: cell-based, human; conditions: for IC50: Homo sapiens, TF-1, 72 h, read-out: IC50 against TF1 cell viability; for Cytotoxicity screening on TF1 cells: 10 μM, Presto Blue assay, result in words
JAK1 = conditions: read-out: IC50 JAK1; cited from earlier work
HEL cell = conditions: read-out: IC50 HEL cell growth; cited from earlier work
TF1 cells [2] = conditions: at IC50, 72 h, dot plot quadrant
JAK2 = target: T1, JAK2 (Homo sapiens, UniProt O60674); assay: ADP-Glo kinase assay, JAK2; type: biochemical; conditions: 5 μM ATP, read-out: IC50 ± SEM JAK2
T1 construct: purchased Sigma-Aldrich SRP0171
T1 sequence (O60674 808-1132 limits assumed): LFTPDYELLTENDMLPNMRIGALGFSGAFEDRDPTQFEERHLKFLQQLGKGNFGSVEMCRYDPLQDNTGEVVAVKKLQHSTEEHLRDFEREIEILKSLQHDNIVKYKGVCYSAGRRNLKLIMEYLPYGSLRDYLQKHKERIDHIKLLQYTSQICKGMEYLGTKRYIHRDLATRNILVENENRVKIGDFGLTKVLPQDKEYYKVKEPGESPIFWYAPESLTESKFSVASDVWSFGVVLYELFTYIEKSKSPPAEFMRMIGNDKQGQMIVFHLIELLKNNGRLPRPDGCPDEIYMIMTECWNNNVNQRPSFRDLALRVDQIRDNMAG

JAK3 = target: T2, JAK3 (Homo sapiens, UniProt P52333); assay: ADP-Glo kinase assay, JAK3; type: biochemical; conditions: 5 μM ATP, read-out: IC50 ± SEM JAK3
T2 construct: purchased Sigma-Aldrich SRP0173
T2 sequence (P52333 781-1124 limits assumed): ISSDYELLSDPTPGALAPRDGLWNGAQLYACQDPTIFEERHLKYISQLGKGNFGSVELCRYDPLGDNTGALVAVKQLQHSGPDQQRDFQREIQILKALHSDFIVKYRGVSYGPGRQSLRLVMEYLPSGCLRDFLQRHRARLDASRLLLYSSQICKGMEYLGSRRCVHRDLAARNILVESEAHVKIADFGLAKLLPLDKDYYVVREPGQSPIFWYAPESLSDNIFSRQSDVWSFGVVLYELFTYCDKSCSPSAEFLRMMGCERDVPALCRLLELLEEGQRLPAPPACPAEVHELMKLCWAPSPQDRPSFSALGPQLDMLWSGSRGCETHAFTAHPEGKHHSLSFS

TF1 cells [3] = conditions: at IC50, 72 h, dot plot quadrant; remark: listed apart in the source
human keratinocytes = system: human keratinocytes; design: method as in PMID 28250347, PMID 22845014; conditions: result in words; cited from earlier work

In the case of O=C1C=CC(=O)c2c(O)cccc21 [Juglone, juglone], the IC50 (HEL cells; Presto Blue assay, mean ± SEM) is reported as 8.67 ± 0.17 µM.

In the case of N#CC[C@H](C1CCCC1)n1cc(-c2ncnc3[nH]ccc23)cn1 [Ruxolitinib, ruxolitinib, reference compound], the IC50 (TF1 cells [1]) is listed as 12.2 ± 0.58 µM, the IC50 (HEL cells) is listed as 26.04 ± 0.26 µM and the IC50 (JAK1) is listed as […].

In the case of N#Cc1ccc(C2C3=C(CCCC3=O)OC3=C2C(=O)c2ccccc2C3=O)cc1 (stereo not shown) [CM363], the IC50 (HEL cell) is given as 1.3 µM.

In the case of CC1=CC(=O)c2ccccc2C1=O [Menadione, menadione], the “Cytotoxicity screening on HEL cells” value (HEL cells; Presto Blue assay) is reported as “high cytotoxicity” and the IC50 (HEL cells; Presto Blue assay, mean ± SEM) is reported as 7.99 ± 1.22 µM.

In the case of CC(=O)c1cc2c(o1)C(=O)c1ccccc1C2=O [Napabucasin, napabucasin], the “Cytotoxicity screening on TF1 cells” value (TF1 cells [1]) is reported as “highly potent cell growth inhibition”, the IC50 (TF1 cells [1]) is reported as 9.57 µM and the “Dead cells, annexin V” value (TF1 cells [2]) is reported as 3.50%. For the same molecule, the “Early Apop. cells, annexin V” value (TF1 cells [2]) was 29.80%, the “Late Apop./Dead cells, annexin V” value (TF1 cells [2]) was 39.24% and the “Cytotoxicity screening on HEL cells” value (HEL cells; Presto Blue assay) was “highly potent cell growth inhibition”. The IC50 (HEL cells) was 3.31 µM, the IC50 (JAK2) was 0.0126 ± 0.00212 µM and the IC50 (JAK3) was 0.0148 ± 0.00237 µM. For the same molecule, the “Apoptotic cells, caspase 3/7” value (TF1 cells [3]) was 25.85%, the “Apoptotic/Dead cells, caspase 3/7” value (TF1 cells [3]) was 18.10% and the “Dead cells, caspase 3/7” value (TF1 cells [3]) was 0.30%. For the same molecule, the “Live cells, caspase 3/7” value (TF1 cells [3]) was 55.75%.

For O=C1C=C(O)C(=O)c2ccccc21 [Lawsone, 2-hydroxy-1,4-naphthoquinone], the “Cytotoxicity screening on TF1 cells” value (TF1 cells [1]) was “inhibited the growth of both cell types poorly” and the “Cytotoxicity screening on HEL cells” value (HEL cells; Presto Blue assay) was “inhibited the growth of both cell types poorly”.

For CCC(=O)c1cc2c(o1)C(=O)c1ccccc1C2=O [2′-methyl napabucasin], the “Cytotoxicity against human keratinocytes” value (human keratinocytes) is given as “potent cytotoxicity”, the “Cytotoxicity screening on TF1 cells” value (TF1 cells [1]) is given as “highly potent cell growth inhibition” and the IC50 (TF1 cells [1]) is given as 18.1 µM. The “Dead cells, annexin V” value (TF1 cells [2]) was 1.10%, the “Early Apop. cells, annexin V” value (TF1 cells [2]) was 25.42% and the “Late Apop./Dead cells, annexin V” value (TF1 cells [2]) was 51.16%. For the same molecule, the “Live cells, annexin V” value (TF1 cells [2]) was 22.32%, the “Cytotoxicity screening on HEL cells” value (HEL cells; Presto Blue assay) was “highly potent cell growth inhibition” and the IC50 (HEL cells) was 6.65 µM. For the same molecule, the IC50 (JAK2) was 0.0111 ± 0.00013 µM, the IC50 (JAK3) was 0.0102 ± 0.00066 µM and the “Apoptotic cells, caspase 3/7” value (TF1 cells [3]) was 13.50%. The “Apoptotic/Dead cells, caspase 3/7” value (TF1 cells [3]) was 22.35%, the “Dead cells, caspase 3/7” value (TF1 cells [3]) was 0.70% and the “Live cells, caspase 3/7” value (TF1 cells [3]) was 63.45%.
